Series [1] relates to Bacillus subtilis. The series is classed as cell-based.
For series [2], the system named is Staphylococcus aureus. The series is classed as cell-based.
The test system of series [3] is Bacillus cereus. The series is classed as cell-based.
Series [4] has as its system Escherichia coli. The series is classed as cell-based.
Series [5] concerns Salmonella typhi. The series is classed as cell-based.
The test system of series [6] is Pseudomonas aeruginosa. The series is classed as cell-based.
The subject of series [7] is brine shrimp nauplii. Conditions: in vivo.
The subject of series [8] is Aspergillus niger. The series is classed as cell-based. Conditions: 5 days.
Series [9] relates to Aspergillus flavus. The series is classed as cell-based. To be noted: 5 days.

On to `CC[C@H]1OC(=O)[C@H](C)[C@@H](O[C@H]2C[C@@](C)(OC)[C@@H](O)[C@H](C)O2)[C@H](C)[C@@H](O[C@@H]2O[C@H](C)C[C@H](N(C)C)[C@H]2O)[C@](C)(O)C[C@@H](C)CN(C)[C@H](C)[C@@H](O)[C@]1(C)O` [Azithromycin, reference compound], for which the “Diameter of Inhibition Zone” value in series [1] is “** 18.5 ± 0.3 mm”; in series [2] it was “** 17.75 ± 0.3 mm”; in series [3], “** 17.22 ± 0.3 mm”; in [4], “** 17.25 ± 0.1 mm”; in series [5], “** 18.0 ± 0.2 mm”; in [6], “** 18.5 ± 0.3 mm”.
Turning to `CO[C@H]1O[C@H](COC(=O)C=Cc2ccccc2)[C@@H](O)[C@H](O)[C@@H]1O` [Compound 2, Methyl 6-O-cinnamoyl-α-D-mannopyranoside], the entries for the “Diameter of Inhibition Zone” value in series [2], in series [3] and in [5] were 11.75 ± 0.3 mm, 07.11 ± 0.5 mm and 12.41 ± 0.3 mm, respectively. Further, the “death rate (brine shrimp)” value in series [7] is 27.07%.
In the case of `CCCCCCC(=O)O[C@@H]1[C@H](OC(=O)CCCCCC)[C@@H](OC)O[C@H](COC(=O)C=Cc2ccccc2)[C@H]1OC(=O)CCCCCC` [Compound 3, Methyl 2,3,4-tri-O-heptanoyl-6-O-cinnamoyl-α-D-mannopyranoside], in series [4], the “Diameter of Inhibition Zone” value turned out to be 10.25 ± 0.2 mm.
As to `CCCCCCCC(=O)O[C@@H]1[C@H](OC(=O)CCCCCCC)[C@@H](OC)O[C@H](COC(=O)C=Cc2ccccc2)[C@H]1OC(=O)CCCCCCC` [Compound 4, Methyl 6-O-cinnamoyl-2,3,4-tri-O-octanoyl-α-D-mannopyranoside], the “Diameter of Inhibition Zone” value came out at 10.51 ± 0.6 mm in series [1], 11.53 ± 0.2 mm in [4], 10.23 ± 0.5 mm in series [5] and 09.19 ± 0.6 mm in series [6]. Besides, the “% Inhibition of Fungal Mycelial Growth in mm (20 μg/μL)” value (“% Inhibition of Fungal Mycelial Growth” for short) in [8] is on record as “* 96.22 ± 1.1%”; in series [9], “* 98.47 ± 1.0%”. Further, the “death rate (brine shrimp)” value in series [7] is listed as 36.10-37.03%.
Turning to `CO[C@H]1O[C@H](COC(=O)/C=C/c2ccccc2)[C@@H](OS(=O)(=O)c2ccc(C)cc2)[C@H](OS(=O)(=O)c2ccc(C)cc2)[C@@H]1OS(=O)(=O)c1ccc(C)cc1` [Compound 5, Methyl 2,3,4-tri-O-p-toluenesulfonyl-6-O-cinnamoyl-α-D-mannopyranoside], the “Diameter of Inhibition Zone” value in [1] came to 12.15 ± 0.7 mm; in series [3], 08.10 ± 0.3 mm; in series [4], 9.00 ± 0.2 mm; in series [6], 12.36 ± 0.2 mm. For the same compound, the “% Inhibition of Fungal Mycelial Growth” value is given as 57.62 ± 1.1% in series [8] and “* 81.30 ± 1.0%” in series [9].
Consider `CO[C@H]1O[C@H](COC(=O)C=Cc2ccccc2)[C@@H](OS(=O)(=O)c2ccccc2)[C@H](OS(=O)(=O)c2ccccc2)[C@@H]1OS(=O)(=O)c1ccccc1` [Compound 6, Methyl 6-O-cinnamoyl-2,3,4-tri-O-benzenesulfonyl-α-D-mannopyranoside], for which the “Diameter of Inhibition Zone” value in series [1] was 10.13 ± 0.8 mm; in [4], 9.00 ± 0.3 mm; in series [5] it was 9.17 ± 0.1 mm; in [6], 8.50 ± 0.2 mm. In addition, the “death rate (brine shrimp)” value in series [7] is given as 36.10-37.03%.
In the case of `C[C@@H]1[C@H](O)[C@@H](C)/C=C/C=C/CC/C=C/C=C/C=C/C=C/C(O[C@H]2O[C@H](C)[C@@H](O)[C@H](N)[C@@H]2O)CC2O[C@](O)(CC(O)C(O)CCC(O)CC(O)CC(O)CC(=O)O[C@H]1C)CC(O)C2C(=O)O` (stereo partly shown) [Nystatin, nystatin, reference compound], the “% Inhibition of Fungal Mycelial Growth” value in series [8] was “** 65.4 ± 1.0%”; in series [9], “** 64.1 ± 1.0%”.

The values above are taken from PMC10745968 (Molecules, 2023).
